# ChEMBL document CHEMBL1201862, “PubChem BioAssay data set” (2004)
# Activity calls are given as the source filed them.
# Experiments:
# [1] = target: T1, Runt-related transcription factor 1/Core-binding factor subunit beta (Homo sapiens, UniProt Q01196+Q13951); experiment: inhibitors of RUNX1 Runt–CBFb-SMMHC binding, biochemical, TR-FRET (AID 1438); format: protein assay
# [2] = target: T1, Runt-related transcription factor 1/Core-binding factor subunit beta; experiment: inhibitors of RUNX1 Runt–CBFb-SMMHC binding, primary screen, biochemical, FRET, Cerulean-Runt, Venus-CBFb-SMMHC, uHTS (AID 1434); format: protein assay;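 also: partner is the CBFb-SMMHC leukemia fusion protein rather than wild-type CBFb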
# [3] = target: T2, Estrogen receptor (Homo sapiens, UniProt P03372);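 also: potency for inhibiting coactivator peptide recruitment to the receptor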
# T2 sequence (P03372 whole entry): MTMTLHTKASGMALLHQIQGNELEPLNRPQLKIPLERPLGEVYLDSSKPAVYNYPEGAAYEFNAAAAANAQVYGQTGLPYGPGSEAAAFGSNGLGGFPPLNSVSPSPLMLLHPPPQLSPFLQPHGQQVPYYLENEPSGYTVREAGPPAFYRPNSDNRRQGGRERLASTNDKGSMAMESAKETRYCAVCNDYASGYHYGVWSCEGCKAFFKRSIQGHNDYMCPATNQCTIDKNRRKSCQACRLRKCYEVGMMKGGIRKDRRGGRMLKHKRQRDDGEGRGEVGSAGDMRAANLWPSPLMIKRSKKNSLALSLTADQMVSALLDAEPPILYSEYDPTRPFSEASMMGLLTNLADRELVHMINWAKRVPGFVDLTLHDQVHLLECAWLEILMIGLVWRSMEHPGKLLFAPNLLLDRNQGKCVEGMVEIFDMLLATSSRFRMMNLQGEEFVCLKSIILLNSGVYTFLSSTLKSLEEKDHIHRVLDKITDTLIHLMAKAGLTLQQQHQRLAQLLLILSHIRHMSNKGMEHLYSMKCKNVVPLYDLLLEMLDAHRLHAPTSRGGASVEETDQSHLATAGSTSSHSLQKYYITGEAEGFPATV
# [4] = target: Troponin, cardiac muscle (Homo sapiens, UniProt P19429+P45379+P63316); experiment: Fluorescence-based biochemical high throughput dose response assay for activators of the calcium sensitivity of cardiac Regulated Thin Filaments (RTF). [Related pubchem assays (depositor defined):AID493008, AID493018, AID504382, AID504383]; format: protein-complex assay
# [5] = target: T3, Corticotropin-releasing factor receptor 2/Corticotropin-releasing factor-binding protein (Homo sapiens, UniProt P24387+Q13324); experiment: activators of CRF receptor 2 with binding protein – uHTS hits, confirmation (AID 602473); format: functional; settings: read-out: EC50_Mean
# T3 sequence (Q13324 whole entry): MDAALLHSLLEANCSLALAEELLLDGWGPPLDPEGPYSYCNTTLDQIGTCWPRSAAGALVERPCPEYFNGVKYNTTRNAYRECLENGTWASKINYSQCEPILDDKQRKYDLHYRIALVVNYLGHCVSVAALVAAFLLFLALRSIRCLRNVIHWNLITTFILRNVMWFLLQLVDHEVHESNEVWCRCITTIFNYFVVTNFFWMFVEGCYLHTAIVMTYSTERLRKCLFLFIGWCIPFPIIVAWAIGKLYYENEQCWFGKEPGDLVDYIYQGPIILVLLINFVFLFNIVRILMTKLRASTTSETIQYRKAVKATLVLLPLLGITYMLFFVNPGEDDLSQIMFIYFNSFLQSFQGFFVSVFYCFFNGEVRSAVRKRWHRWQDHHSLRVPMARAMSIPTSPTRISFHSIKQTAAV
# T3 sequence (P24387 whole entry): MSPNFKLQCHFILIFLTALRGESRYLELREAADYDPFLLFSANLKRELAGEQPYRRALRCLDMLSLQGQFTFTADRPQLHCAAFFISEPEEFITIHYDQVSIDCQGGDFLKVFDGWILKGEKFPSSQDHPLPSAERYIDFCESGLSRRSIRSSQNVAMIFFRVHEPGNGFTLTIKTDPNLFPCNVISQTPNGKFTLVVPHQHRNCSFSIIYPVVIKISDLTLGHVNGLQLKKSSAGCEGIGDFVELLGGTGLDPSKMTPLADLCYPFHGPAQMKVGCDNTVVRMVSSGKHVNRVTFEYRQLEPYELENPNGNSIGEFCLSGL
# [6] = target: Female germline-specific tumor suppressor gld-1 (Caenorhabditis elegans, UniProt Q17339); experiment: inhibitors of GLD-1 binding to TGE RNA, dose response, biochemical, fluorescence polarization, C. elegans (AID 2802);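 also: fluorescence polarization of labeled TGE RNA bound by purified gld-1 protein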
# [7] = target: Protein Rev (Human immunodeficiency virus type 1 group M subtype B (isolate HXB2)(HIV-1), UniProt P04618); experiment: inhibitors of Rev binding to RRE RNA, dose response, biochemical, fluorescence polarization, HIV-1 (AID 434976); set-up: species or system Human immunodeficiency virus 1
# [8] = target: T3, Corticotropin-releasing factor receptor 2/Corticotropin-releasing factor-binding protein; experiment: Dose Response confirmation of uHTS hits for small molecule antagonists of the CRF-binding protein and CRF-R2 receptor complex.; format: functional; settings: read-out: IC50_Mean
# [9] = target: Peroxisome proliferator-activated receptor gamma/Nuclear receptor coactivator 3 (Homo sapiens, UniProt P37231); experiment: TR-FRET dose response biochemical High Throughput Screening assay for agonists of the steroid receptor coactivator 3 (SRC-3) recruitment by the peroxisome proliferator-activated receptor gamma (PPAR gamma): non-selective agonists. [Related pubchem assays: 1301 (Confirmation screen.), 1048 (Primary screen.)]; format: functional
# [10] = target: Peroxisome proliferator-activated receptor gamma/Nuclear receptor coactivator 2 (Homo sapiens, UniProt P37231); experiment: (§1) TR-FRET dose response biochemical High Throughput Screening assay for agonists of the steroid receptor coactivator 2 (SRC-2) recruitment by the peroxisome proliferator-activated receptor gamma (PPAR gamma): non-selective agonists. [Related pubchem assays: 1297, 1032 ]; format: functional
# [11] = target: Peroxisome proliferator-activated receptor gamma/Nuclear receptor coactivator 1 (Homo sapiens, UniProt P37231); experiment: as §1, with “1 (SRC-1)” for “2 (SRC-2)”, “assays (depositor defined):AID1300, AID1808, AID504735, AID631]” for “assays: 1297, 1032 ]”; format: protein assay
# [12] = target: T4, Short transient receptor potential channel 4 (Mus musculus, UniProt Q9QUQ5); experiment: mouse TRPC4 channel activators, dose response, cell-based, HEK293 TRPC4/mu-opioid, Fluo-4 calcium (AID 434937); format: functional
# T4 sequence (Q9QUQ5 whole entry): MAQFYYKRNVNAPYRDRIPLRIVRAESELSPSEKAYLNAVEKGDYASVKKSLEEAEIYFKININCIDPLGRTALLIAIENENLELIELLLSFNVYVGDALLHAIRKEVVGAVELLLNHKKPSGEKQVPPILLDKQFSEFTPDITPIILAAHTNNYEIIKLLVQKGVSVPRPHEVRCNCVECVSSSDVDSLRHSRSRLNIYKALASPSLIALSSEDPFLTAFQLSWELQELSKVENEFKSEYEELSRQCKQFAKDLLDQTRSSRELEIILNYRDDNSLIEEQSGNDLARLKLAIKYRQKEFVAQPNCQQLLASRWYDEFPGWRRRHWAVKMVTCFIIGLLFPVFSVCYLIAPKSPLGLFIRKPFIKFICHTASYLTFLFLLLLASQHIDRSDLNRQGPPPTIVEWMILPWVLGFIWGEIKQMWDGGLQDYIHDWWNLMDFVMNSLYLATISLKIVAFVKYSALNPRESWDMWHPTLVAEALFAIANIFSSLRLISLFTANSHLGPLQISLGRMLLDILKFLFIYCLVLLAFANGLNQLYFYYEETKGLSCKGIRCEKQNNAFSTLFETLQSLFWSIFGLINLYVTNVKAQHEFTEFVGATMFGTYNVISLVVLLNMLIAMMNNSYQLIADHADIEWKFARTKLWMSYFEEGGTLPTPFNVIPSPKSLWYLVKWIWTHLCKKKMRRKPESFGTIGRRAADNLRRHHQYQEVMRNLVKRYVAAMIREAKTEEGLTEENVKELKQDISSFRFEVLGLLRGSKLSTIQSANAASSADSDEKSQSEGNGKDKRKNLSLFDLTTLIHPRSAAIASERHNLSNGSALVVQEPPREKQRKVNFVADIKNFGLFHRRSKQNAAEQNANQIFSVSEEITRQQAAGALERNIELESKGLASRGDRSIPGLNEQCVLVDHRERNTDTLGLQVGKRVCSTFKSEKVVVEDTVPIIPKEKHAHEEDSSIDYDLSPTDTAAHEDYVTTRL
# [13] = target: T5, SUMO-activating enzyme (Homo sapiens, UniProt Q9UBT2); experiment: SUMOylation inhibitor hit validation, confirmation, SUMOylation inhibitor project, biochemical, AlphaScreen (AID 2018); format: functional
# [14] = target: T5, SUMO-activating enzyme; experiment: inhibitors of in vitro SUMOylation cascade, primary screen, biochemical, HTRF, uHTS (AID 2006); format: protein-complex assay
# [15] = target: Ephrin type-A receptor 4 (Mus musculus, UniProt Q03137); experiment: inhibitors of EphA4 binding to KYL peptide, primary screen, biochemical, colorimetric, mouse EphA4 (AID 689); format: functional
# [16] = target: SUMO E1/E2 (Homo sapiens, UniProt P63279+Q9UBE0+Q9UBT2); experiment: SAR analysis of SUMOylation using HTRF in an in-Vitro dose response assay. [Related pubchem assays (depositor defined):AID2006, AID2011, AID2018, AID2069, AID2658]; format: functional
# [17] = target: T6, Alkaline phosphatase, tissue-nonspecific isozyme (Homo sapiens, UniProt P05186); experiment: human TNAP enzyme inhibitors, SAR follow-up, biochemical, luminescent, dose response (AID 1056)
# T6 sequence (P05186 whole entry): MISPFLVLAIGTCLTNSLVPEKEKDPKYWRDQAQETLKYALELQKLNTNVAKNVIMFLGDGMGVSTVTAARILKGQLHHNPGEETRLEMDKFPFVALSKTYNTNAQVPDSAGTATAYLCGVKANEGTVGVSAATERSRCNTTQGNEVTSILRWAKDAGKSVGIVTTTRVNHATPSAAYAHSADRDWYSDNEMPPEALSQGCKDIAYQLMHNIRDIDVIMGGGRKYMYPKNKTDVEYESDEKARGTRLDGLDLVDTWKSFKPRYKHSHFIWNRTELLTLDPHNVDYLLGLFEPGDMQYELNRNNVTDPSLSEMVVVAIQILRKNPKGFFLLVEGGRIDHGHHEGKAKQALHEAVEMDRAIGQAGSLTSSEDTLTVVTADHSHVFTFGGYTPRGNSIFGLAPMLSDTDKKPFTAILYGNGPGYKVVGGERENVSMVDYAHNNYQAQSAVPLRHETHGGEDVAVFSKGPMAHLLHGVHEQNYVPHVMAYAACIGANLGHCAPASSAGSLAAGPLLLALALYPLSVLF
# [18] = target: Alkaline phosphatase, placental type (Homo sapiens, UniProt P05187); experiment: PLAP enzyme inhibitors, confirmation, biochemical, luminescence (AID 1512); format: functional
# [19] = growth suppression of PTEN-null colon cells, dose response, cell-based, HCT116 PTEN knockout (AID 1047); format: functional;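 also: HCT116 colon tumor cells with PTEN knocked out; cells exposed to compound for 60 hours before readout; potency for loss of cell viability measured by luminescence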
# [20] = test system: INS1; experiment: beta cell apoptosis inhibitors, cytokine rescue, dose response, luminescence, retest (AID 449756); format: functional, cell-based; settings: Rattus norvegicus;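 also: cell death triggered by IL-1 beta plus TNF-alpha plus IFN-gamma mixture; protective hits raise ATP signal compared with cytokine alone wells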
# [21] = Vero E6 cell cytotoxicity, dose response, cytotoxicity control for non-replicating M. tuberculosis project, secondary assay (AID 492998); format: functional, VeroE6; settings: Vero C1008
# [22] = growth suppression of beta-catenin-knockout colon cells, dose response, cell-based, HCT116, human colon tumor (AID 1045); format: functional;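 also: HCT116 colon tumor cells with beta catenin knocked out; cells exposed to compound for 60 hours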
# [23] = cells; format: functional
# [24] = THP-1 cell cytotoxicity, dose response, cytotoxicity control for non-replicating M. tuberculosis project (AID 489025); format: functional
# [25] = HepG2 cell cytotoxicity, dose response, cytotoxicity control for non-replicating M. tuberculosis project (AID 489018); format: functional; settings: Mycobacterium tuberculosis
# [26] = target: Glyceraldehyde-3-phosphate dehydrogenase (Homo sapiens, UniProt P04406)
compound,measurement,setting,value
CCOc1cc(C2C3=C(CCCC3=O)N(CCC(=O)O)C3=C2C(=O)CCC3)ccc1OS(=O)(=O)c1ccc(C)cc1,IC50,[1],30.5 µM (active)
same,IC50,[2],0.629 µM (active)
O=C(Nc1nc(-c2nc3ccccc3s2)cs1)C1COc2ccccc2O1 (configuration not stated),IC50,[3],25.1 µM (active)
same,EC50,[4],> 71.5 µM (inactive)
Cc1cccn2c(=O)c(/C=C(\C#N)C(=O)NCc3ccco3)c(N3CCC(C(N)=O)CC3)nc12,IC50,[1],> 100 µM (inactive)
same,IC50,[2],> 100 µM (inactive)
CCOc1cc(C2C(C(=O)OC)=CN(C3CCCC3)C=C2C(=O)OC)cc(Br)c1O,EC50,[5],> 53 µM (inactive)
same,IC50,[6],> 59.6 µM (inactive)
same,IC50,[7],> 75.4 µM (not active)
same,IC50,[8],> 47.1 µM (inactive)
CCCC(C)NC(=O)c1ccc(OCc2ccc(Cl)cc2)c(OC)c1 (configuration not stated),EC50,[9],13.8 µM (not active)
same,EC50,[10],> 79.4 µM (not active)
same,EC50,[11],157 µM (inactive)
CCn1c(N2CCN(C(S)=NCC(C)C)CC2)nc2ccccc21,EC50,[12],1.68 µM (active)
Cc1ccc(NC(=O)c2ccccc2OCC(=O)Nc2cccc(Cl)c2C)nc1,IC50,[13],34.5 µM (active)
same,IC50,[14],17.8 µM (active)
COc1ccc(-n2c(NC(=O)c3ccc(Br)o3)c(C#N)c3nc4ccccc4nc32)cc1,IC50,[15],> 100 µM (not active)
same,IC50,[16],20.2 µM (active)
same,IC50,[13],8.09 µM (active)
same,IC50,[14],17.8 µM (active)
CCc1nnc(SCC(=O)c2ccc(O)c(O)c2)[nH]1,IC50,[17],10.9 µM (active)
same,IC50,[18],3.25 µM (active)
CCn1cc(CN2CCC(n3nccc3NC(=O)CCOc3ccccc3)CC2)cn1,EC50,[12],1.19 µM (active)
O=C(Cc1ccccc1)N/N=C/c1ccc([N+](=O)[O-])s1,EC50,[19],9.53 µM (active)
same,AC50,[20],6.38 µM (active)
same,CC50,[21],12.5 µM (active)
same,EC50,[22],8.44 µM (active)
same,IC50,[23],11.1 µM (active)
same,CC50,[24],26.6 µM (active)
same,CC50,[25],16 µM (active)
O=C(c1cc(-c2ccc(Cl)cc2Cl)n[nH]1)N1CCOCC1,IC50,[26],> 100 µM (not active)
same,IC50,[18],> 100 µM (inactive)
